According to ChEMBL document CHEMBL3526087, “Inhibition of human sterol Δ7-reductase and other postlanosterol enzymes by LK-980, a novel inhibitor of cholesterol synthesis” (Drug Metab Dispos, 2011):

Key:
[1] = target: T1, Delta(14)-sterol reductase TM7SF2 (Homo sapiens) (UniProt O76062); experiment: Inhibition of DHCR14 activity in human hepatocytes assessed as increase in FF-MAS level per gram of protein by GC-MS analysis (reference value: 0.7 ug); type: cell-based; settings: Hepatocyte
T1 sequence (whole entry): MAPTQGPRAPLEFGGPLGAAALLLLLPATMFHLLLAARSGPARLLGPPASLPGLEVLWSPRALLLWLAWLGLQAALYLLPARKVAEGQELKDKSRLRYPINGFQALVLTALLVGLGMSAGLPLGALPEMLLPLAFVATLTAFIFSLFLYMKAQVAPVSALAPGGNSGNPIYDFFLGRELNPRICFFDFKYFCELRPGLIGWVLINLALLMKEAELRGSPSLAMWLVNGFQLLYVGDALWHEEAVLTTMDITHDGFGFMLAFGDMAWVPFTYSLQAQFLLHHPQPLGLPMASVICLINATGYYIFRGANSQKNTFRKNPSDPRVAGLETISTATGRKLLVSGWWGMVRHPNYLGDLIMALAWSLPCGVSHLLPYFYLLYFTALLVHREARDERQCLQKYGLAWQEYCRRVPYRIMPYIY

[2] = target: Cytochrome P450 3A4 (Homo sapiens, UniProt P08684); experiment: Effect on CYP3A4 in human hepatocytes assessed as nifedipine oxidation activity using nifedipine as substrate at 10 uM; type: ADME, cell-based, Hepatocyte
[3] = target: T2, Lathosterol oxidase (Homo sapiens) (UniProt O75845); experiment: Inhibition of SC5DL activity in human hepatocytes assessed as increase in lathosterol level per gram of protein by GC-MS analysis (reference value: 47.7 ug); type: cell-based; settings: Hepatocyte
T2 sequence (whole entry): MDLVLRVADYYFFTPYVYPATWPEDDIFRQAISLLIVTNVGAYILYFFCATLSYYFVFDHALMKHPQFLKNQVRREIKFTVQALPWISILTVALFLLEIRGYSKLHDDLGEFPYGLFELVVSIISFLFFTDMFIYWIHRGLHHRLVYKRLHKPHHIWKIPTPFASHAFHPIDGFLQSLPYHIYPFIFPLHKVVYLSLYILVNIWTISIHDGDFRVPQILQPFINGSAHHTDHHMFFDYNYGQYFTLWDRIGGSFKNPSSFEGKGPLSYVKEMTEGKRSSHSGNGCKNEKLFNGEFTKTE

[4] = target: T3, 3-hydroxy-3-methylglutaryl-coenzyme A reductase (Homo sapiens) (UniProt P04035); experiment: Inhibition of HMGCR activity in human hepatocytes assessed as mevalonate formed per mg of protein at 100 uM by GC-MS analysis (reference value: 69 9 pmol/min); type: cell-based; settings: Hepatocyte
T3 sequence (whole entry): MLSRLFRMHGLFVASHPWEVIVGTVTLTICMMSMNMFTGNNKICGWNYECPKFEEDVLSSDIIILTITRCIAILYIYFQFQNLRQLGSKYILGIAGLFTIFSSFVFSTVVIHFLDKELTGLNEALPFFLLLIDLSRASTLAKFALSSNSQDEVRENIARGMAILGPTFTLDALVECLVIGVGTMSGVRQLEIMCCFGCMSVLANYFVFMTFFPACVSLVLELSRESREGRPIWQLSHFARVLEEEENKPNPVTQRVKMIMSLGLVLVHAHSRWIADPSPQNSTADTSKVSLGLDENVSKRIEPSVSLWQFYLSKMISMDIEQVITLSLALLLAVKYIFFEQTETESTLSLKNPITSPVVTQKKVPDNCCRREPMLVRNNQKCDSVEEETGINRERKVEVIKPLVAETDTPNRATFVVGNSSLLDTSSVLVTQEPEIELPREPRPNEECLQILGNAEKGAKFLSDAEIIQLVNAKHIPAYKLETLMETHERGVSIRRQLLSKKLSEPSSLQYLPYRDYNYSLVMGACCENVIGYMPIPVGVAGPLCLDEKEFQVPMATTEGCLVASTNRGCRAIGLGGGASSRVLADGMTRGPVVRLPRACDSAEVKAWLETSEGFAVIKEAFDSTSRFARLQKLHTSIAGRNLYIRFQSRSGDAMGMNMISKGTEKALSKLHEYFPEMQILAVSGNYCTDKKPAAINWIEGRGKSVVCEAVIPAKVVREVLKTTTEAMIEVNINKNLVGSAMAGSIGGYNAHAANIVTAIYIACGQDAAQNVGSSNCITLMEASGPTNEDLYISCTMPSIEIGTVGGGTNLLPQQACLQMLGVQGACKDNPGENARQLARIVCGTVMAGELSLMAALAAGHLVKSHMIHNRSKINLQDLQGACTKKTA

[5] = target: T4, Delta(24)-sterol reductase (Homo sapiens) (UniProt Q15392); experiment: Inhibition of DHCR24 activity in human hepatocytes assessed as increase in desmosterol level per gram of protein by GC-MS analysis (reference value: 5.5 ug); type: cell-based; settings: Hepatocyte
T4 sequence (whole entry): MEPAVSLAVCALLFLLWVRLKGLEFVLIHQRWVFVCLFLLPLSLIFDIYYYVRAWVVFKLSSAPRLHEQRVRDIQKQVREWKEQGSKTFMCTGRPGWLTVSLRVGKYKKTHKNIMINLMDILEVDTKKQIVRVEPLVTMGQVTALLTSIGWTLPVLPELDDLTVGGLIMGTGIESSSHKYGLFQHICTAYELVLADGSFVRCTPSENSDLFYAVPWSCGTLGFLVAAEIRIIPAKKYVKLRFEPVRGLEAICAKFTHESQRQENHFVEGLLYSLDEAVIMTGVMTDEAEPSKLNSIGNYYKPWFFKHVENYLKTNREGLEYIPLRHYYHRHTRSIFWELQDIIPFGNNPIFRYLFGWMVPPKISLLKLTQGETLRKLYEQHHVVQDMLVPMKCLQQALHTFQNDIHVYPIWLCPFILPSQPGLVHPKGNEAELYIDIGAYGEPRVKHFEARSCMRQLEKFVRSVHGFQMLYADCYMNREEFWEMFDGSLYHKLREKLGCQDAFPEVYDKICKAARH

[6] = target: T5, 7-dehydrocholesterol reductase (Homo sapiens) (UniProt Q9UBM7); experiment: Inhibition of DHCR7 activity in human hepatocytes assessed as increase in 7-dehydrocholesterol level per gram of protein by GC-MS analysis (reference value: 16.3 ug); type: cell-based; settings: Hepatocyte
T5 sequence (whole entry): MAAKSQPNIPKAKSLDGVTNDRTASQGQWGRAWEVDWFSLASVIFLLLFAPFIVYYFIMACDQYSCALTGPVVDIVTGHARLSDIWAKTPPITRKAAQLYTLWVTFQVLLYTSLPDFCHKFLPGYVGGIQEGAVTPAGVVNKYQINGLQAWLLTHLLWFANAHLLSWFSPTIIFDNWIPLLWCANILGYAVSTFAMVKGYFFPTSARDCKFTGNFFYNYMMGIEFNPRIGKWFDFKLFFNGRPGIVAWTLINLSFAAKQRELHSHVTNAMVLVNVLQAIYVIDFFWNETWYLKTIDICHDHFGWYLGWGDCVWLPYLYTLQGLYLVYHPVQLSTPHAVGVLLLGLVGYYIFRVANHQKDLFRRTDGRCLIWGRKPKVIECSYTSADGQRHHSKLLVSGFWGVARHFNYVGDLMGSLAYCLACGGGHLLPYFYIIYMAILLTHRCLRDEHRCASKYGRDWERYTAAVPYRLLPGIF

[7] = tested on: Hepatocyte; experiment: Effect on CYP3A4 mRNA expression in human hepatocytes at 10 uM after 12 to 48 hrs by RT-PCR analysis; type: ADME, cell-based
[8] = target: T3, 3-hydroxy-3-methylglutaryl-coenzyme A reductase (Homo sapiens); experiment: Inhibition of HMGCR activity in human hepatocytes assessed as increase in FF-MAS level per gram of protein by GC-MS analysis (reference value: 0.7 ug); type: cell-based; settings: Hepatocyte
[9] = target: T3, 3-hydroxy-3-methylglutaryl-coenzyme A reductase (Homo sapiens); experiment: Inhibition of HMGCR activity in human hepatocytes assessed as increase in 7-dehydrocholesterol level per gram of protein by GC-MS analysis (reference value: 16.3 ug); type: cell-based; settings: Hepatocyte
[10] = target: T3, 3-hydroxy-3-methylglutaryl-coenzyme A reductase (Homo sapiens); experiment: Inhibition of HMGCR activity in human hepatocytes assessed as increase in lathosterol level per gram of protein by GC-MS analysis (reference value: 47.7 ug); type: cell-based; settings: Hepatocyte
[11] = target: T3, 3-hydroxy-3-methylglutaryl-coenzyme A reductase (Homo sapiens); experiment: Inhibition of HMGCR activity in human hepatocytes assessed as increase in desmosterol level per gram of protein by GC-MS analysis (reference value: 5.5 ug); type: cell-based; settings: Hepatocyte

Chain of Cytochrome P450 3A4 (P08684 whole entry): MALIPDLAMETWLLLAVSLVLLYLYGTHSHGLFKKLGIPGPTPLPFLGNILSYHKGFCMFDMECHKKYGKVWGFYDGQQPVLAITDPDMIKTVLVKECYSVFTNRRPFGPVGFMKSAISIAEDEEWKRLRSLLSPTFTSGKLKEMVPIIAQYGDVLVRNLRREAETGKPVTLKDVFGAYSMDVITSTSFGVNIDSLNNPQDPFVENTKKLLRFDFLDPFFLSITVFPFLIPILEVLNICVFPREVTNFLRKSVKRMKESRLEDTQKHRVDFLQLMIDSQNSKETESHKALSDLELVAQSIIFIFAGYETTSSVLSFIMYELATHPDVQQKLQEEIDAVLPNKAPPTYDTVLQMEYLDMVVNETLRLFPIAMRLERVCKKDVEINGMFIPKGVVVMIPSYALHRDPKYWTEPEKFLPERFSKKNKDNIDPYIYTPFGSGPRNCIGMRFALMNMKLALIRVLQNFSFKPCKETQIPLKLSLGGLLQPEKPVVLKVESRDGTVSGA

Activity [1] | Activity [3] | Activity [4] | Activity [5] | Activity [6] | Activity [8] | Activity [9] | Activity [10] | Activity [11] | SMILES | Activity [2] | Activity [7]
2.9 µg | 119 µg | 76 pmol/min | 10.1 µg | 556 µg |  |  |  |  | OC(CN1CCN(CCc2ccccc2)CC1)c1cccnc1 (stereo unspecified) | Non-toxic | Non-toxic
 |  |  |  |  | 0.3 µg | 15.8 µg | 25.8 µg | 2.7 µg | CC(C)c1c(C(=O)Nc2ccccc2)c(-c2ccccc2)c(-c2ccc(F)cc2)n1CC[C@@H](O)C[C@@H](O)CC(=O)O |  | 
